Experimental data taken from patent publication US20090186047A1, “HCV Vaccinations” (INTERCELL AG, priority 2006, published 2009).

System: HCV peptide-specific T cells (MHC class I-restricted CD8+ / MHC class II-restricted CD4+)
Assay: IFN-γ ELIspot assay of spleen cells after vaccination of mice
Assay type: in vivo, HLA-A*0201 transgenic mice (HHD.2)
Procedure: Vaccine: clinical batch PD03127 (lot K) Injection volume of 100 μl per mouse contains:
As adjuvant: Poly-L-Arginine with an average degree of polymerisation of 40 to 50 arginine residues (determined by multiple angle laser light scattering (MALLS)); lot 113K7277; Sigma Aldrich Inc.; 400 μg • Additional adjuvant: Aldara™ containing 5% Imiquimod, an immunostimulatory agent acting via TLR7; 3M Health Care Ltd.; dose: approx 20 mg/mouse • Formulation buffer: 5 mM phosphate/270 mM sorbitol Experimental set-up 10 mice per group • 1. subcutaneous injection into the flank • 2. intradermal injection into the back • 3. intradermal injection into the back followed by immediate application of Aldara™ cream at injection area
On days 0, 14 and 28 mice were injected with a total amount of 100 μl/vaccine/mouse containing the above listed compounds at different sites as indicated. Spleens were harvested for each experimental group on day 35 and enriched for CD4^+ T cells by magnetic separation (MACS). CD4^+ T cell-depleted spleen cells were used to determine the CD8^+ T cell response. MHC class II restricted (CD4^+ T cells) as well as MHC class I restricted T cell responses (CD8^+ T cells) against each single HCV-derived peptide were determined using an IFN-7 ELIspot assay. In general, restimulation with an irrelevant peptide induced no IFN-7 production.
Vaccine: Injection volume of 100 μl per mouse contains: As antigens: Ipep 83 200 μg, Ipep 84 200 μg, Ipep 87 200 μg, Ipep 89 200 μg, Ipep 1426 200 μg As adjuvant: Poly-L-Arginine with an average degree of polymerization of 40 to 50 arginine residues (determined by MALLS); lot 113K7277; Sigma Aldrich Inc.; 400 μg • Additional adjuvant: Aldara™ containing 5% Imiquimod, an immunostimulatory agent acting via TLR7; 3M Health Care Ltd.; dose: approx 20 mg/mouse • Formulation buffer: 5 mM phosphate/270 mM sorbitol Experimental set-up 30 mice per group (10 per time point of analysis) • 1. intradermal injection into the back • 2. intradermal injection into the back followed by immediate application of Aldara™ cream at injection area […]

[1] = Example 1: subcutaneous injection into the flank, days 0, 14 and 28, spleens day 35

GYKVLVLNPSVAAT [Ipep 84]
MHC class I-restricted CD8+ T cell response (IFN-γ ELIspot) [1]: could be detected
MHC class II-restricted CD4+ T cell response (IFN-γ ELIspot) [1]: could be detected
IFN-γ production by MHC class I-restricted CD8+ T cells (Example 2: two intradermal injections, day 21): induced in comparable strength
